{"source": "paper doi:10.1101/2024.01.16.575974v2", "about": "“Structural insights into peptidoglycan hydrolysis by the FtsEX system in Escherichia coli during cell division” (biorxiv, 2025)", "key": {"[1]": {"target": "T1, EcoFtsEX (Escherichia coli, UniProt P0A9R7)", "T1 construct": "gene ftsE; full-length, His6-tagged (pTD68 his6-FtsEX), expressed in E. coli BL21(DE3) pLysS, DDM-solubilised, in peptidiscs; two FtsE and two FtsX; with Cell division protein FtsX", "T1 sequence (P0A9R7 1-222)": "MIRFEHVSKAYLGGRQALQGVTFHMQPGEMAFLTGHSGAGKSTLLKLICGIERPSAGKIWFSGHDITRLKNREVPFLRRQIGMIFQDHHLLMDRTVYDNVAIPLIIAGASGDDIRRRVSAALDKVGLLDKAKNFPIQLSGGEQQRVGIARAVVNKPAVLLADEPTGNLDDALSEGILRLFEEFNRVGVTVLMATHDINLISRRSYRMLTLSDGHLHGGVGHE", "T1 sequence (P0AC30 1-352 partner)": "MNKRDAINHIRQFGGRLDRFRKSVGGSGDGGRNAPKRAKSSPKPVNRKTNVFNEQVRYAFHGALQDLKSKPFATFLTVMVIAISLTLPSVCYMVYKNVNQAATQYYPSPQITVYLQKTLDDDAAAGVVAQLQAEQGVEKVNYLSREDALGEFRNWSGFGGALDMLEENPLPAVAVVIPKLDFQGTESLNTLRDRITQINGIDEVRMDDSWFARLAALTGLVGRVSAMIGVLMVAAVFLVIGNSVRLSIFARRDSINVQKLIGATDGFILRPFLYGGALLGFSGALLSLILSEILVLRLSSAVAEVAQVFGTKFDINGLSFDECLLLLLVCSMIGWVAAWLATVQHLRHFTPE", "experiment": "complex stabilisation against precipitation (SDS-PAGE)", "format": "binding", "details": "2 mM nucleotide, pH 8.0"}, "[2]": {"target": "T2, BsFtsEX (Bacillus subtilis, UniProt O34814)", "T2 construct": "gene ftsE; His6-FtsEX (pTD68) expressed in E. coli BL21(DE3) pLysS, DDM-solubilised, peptidiscs, SEC; with Cell division protein FtsX", "T2 sequence (O34814 1-228)": "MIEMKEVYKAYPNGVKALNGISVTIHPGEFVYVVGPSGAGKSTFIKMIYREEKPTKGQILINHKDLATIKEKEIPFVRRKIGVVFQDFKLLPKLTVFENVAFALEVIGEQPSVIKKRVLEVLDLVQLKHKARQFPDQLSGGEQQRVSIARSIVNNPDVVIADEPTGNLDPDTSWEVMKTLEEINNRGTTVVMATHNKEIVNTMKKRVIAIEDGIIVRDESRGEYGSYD", "T2 sequence (O34876 1-296 partner)": "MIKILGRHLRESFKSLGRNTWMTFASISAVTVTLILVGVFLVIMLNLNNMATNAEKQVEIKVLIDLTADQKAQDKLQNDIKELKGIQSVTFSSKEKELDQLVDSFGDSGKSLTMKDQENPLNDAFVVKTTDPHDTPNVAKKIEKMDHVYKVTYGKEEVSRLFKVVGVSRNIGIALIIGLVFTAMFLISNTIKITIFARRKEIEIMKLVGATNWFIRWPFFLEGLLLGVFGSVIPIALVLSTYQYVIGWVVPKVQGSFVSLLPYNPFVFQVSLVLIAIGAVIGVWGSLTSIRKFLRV", "experiment": "complex stabilisation (SEC yield, FtsE:FtsX stoichiometry on SDS-PAGE)", "details": "2 mM ATP, pH 8.0; indirect evidence of binding"}, "[3]": {"target": "T3, PaeFtsEX (Pseudomonas aeruginosa, UniProt Q9I6C0)", "T3 construct": "gene ftsE; His6-FtsEX (pTD68) expressed in E. coli BL21(DE3) pLysS, DDM-solubilised, peptidiscs, SEC; with Cell division protein FtsX", "T3 sequence (Q9I6C0 1-223)": "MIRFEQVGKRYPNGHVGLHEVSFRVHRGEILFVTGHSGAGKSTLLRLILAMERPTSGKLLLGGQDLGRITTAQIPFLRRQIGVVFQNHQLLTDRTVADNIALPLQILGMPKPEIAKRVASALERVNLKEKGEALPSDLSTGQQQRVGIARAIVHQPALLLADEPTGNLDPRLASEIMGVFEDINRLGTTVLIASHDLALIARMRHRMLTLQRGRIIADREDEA", "T3 sequence (Q9I6B9 1-335 partner)": "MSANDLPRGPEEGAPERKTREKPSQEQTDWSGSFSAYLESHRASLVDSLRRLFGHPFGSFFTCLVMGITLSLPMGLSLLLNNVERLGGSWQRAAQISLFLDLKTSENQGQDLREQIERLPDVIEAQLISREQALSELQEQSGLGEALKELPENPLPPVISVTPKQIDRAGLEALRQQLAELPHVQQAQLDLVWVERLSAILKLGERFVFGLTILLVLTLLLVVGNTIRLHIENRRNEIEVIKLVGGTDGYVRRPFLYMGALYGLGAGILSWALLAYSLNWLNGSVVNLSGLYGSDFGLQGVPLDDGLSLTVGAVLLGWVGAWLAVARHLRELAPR", "experiment": "complex stabilisation (SEC yield, FtsE:FtsX stoichiometry on SDS-PAGE)", "details": "2 mM ATP, pH 8.0; indirect evidence of binding"}, "[4]": {"target": "T4, EcoFtsEX/EnvC (Escherichia coli, UniProt P0A9R7, E163Q)", "T4 construct": "gene ftsE; full-length His6-FtsEX in peptidiscs plus EnvC delta34 (signal region removed, His6-SUMO tag cut), both expressed in E. coli BL21(DE3) pLysS; with Cell division protein FtsX", "T4 sequence (P0A9R7 1-222 E163Q)": "T1 sequence (P0A9R7 1-222) with E163Q", "T4 sequence (P0AC30 1-352 partner)": "T1 sequence (P0AC30 1-352 partner)", "T4 sequence (P37690 35-419 partner)": "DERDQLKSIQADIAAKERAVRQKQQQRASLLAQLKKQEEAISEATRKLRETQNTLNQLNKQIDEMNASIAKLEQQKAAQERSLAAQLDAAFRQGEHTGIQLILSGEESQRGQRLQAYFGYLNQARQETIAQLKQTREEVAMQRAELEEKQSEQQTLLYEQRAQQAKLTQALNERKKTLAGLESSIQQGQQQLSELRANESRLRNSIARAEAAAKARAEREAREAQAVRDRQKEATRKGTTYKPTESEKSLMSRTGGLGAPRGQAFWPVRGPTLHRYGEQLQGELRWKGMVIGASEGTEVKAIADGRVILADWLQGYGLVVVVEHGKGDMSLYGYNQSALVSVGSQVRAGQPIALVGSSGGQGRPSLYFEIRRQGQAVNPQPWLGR", "experiment": "cryo-EM structure, […] Å", "format": "binding", "details": "2 mM ATP-Mg2+, peptidiscs; hydrolysis-deficient mutant, two bound nucleotides at FtsE"}, "[5]": {"target": "T5, SpFtsEX (Streptococcus pneumoniae, UniProt A0A0H2ZM82)", "T5 construct": "gene ftsE; His6-FtsEX (pTD68) expressed in E. coli BL21(DE3) pLysS, DDM-solubilised, peptidiscs, SEC; with Cell division protein FtsX", "T5 sequence (A0A0H2ZM82 1-230)": "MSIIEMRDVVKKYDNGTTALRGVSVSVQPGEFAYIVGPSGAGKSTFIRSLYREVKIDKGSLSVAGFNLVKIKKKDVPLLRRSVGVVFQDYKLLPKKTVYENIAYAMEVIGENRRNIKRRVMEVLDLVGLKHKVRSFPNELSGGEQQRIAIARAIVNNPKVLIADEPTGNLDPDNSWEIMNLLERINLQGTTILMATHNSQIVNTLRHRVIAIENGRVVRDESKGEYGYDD", "T5 sequence (Q04LE4 1-308 partner)": "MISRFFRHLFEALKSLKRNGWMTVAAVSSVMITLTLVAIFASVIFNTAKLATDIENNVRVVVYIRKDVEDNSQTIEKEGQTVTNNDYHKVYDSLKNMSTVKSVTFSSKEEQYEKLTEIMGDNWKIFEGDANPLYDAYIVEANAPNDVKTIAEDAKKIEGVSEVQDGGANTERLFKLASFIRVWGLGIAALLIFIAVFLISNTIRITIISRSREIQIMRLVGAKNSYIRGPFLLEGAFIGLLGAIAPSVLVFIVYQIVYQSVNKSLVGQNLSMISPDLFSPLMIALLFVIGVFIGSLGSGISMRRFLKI", "experiment": "complex stabilisation (SEC yield, FtsE:FtsX stoichiometry on SDS-PAGE)", "details": "2 mM ATP, pH 8.0; indirect evidence of binding"}, "[6]": {"target": "T1, EcoFtsEX", "experiment": "cryo-EM structure, […] Å", "format": "binding", "details": "3 mM ATPγS, 2 mM Mg2+, peptidiscs; two bound nucleotides at FtsE"}}, "note": "Where a chain is given by its changes, count along the chain named.", "data": [{"smiles": "Nc1ncnc2c1ncn2[C@@H]1O[C@H](COP(=O)(O)OP(=O)(O)O)[C@@H](O)[C@H]1O", "note": "[ADP]", "values": [{"measurement": "complex stabilisation against precipitation (SDS-PAGE)", "setting": "[1]", "result": "ATP analogues, including ATPγS, AMP-PNP, and ADP, also exhibited similar stabilizing effects"}]}, {"smiles": "Nc1ncnc2c1ncn2[C@@H]1O[C@H](COP(=O)(O)OP(=O)(O)NP(=O)(O)O)[C@@H](O)[C@H]1O", "note": "[AMP-PNP]", "values": [{"measurement": "complex stabilisation against precipitation (SDS-PAGE)", "setting": "[1]", "result": "ATP analogues, including ATPγS, AMP-PNP, and ADP, also exhibited similar stabilizing effects"}]}, {"smiles": "Nc1ncnc2c1ncn2[C@@H]1O[C@H](COP(=O)(O)OP(=O)(O)OP(=O)(O)O)[C@@H](O)[C@H]1O", "note": "[ATP]", "values": [{"measurement": "complex stabilisation (SEC yield, FtsE:FtsX stoichiometry on SDS-PAGE)", "setting": "[2]", "result": "regardless of the bacterial species, ATP consistently enhanced the stability of the complexes"}, {"measurement": "complex stabilisation (SEC yield, FtsE:FtsX stoichiometry on SDS-PAGE)", "setting": "[3]", "result": "regardless of the bacterial species, ATP consistently enhanced the stability of the complexes"}, {"measurement": "cryo-EM structure, 3.4 Å", "setting": "[4]", "result": "8W6J (ATP-bound FtsE^E163QX/EnvC)"}, {"measurement": "complex stabilisation (SEC yield, FtsE:FtsX stoichiometry on SDS-PAGE)", "setting": "[5]", "result": "regardless of the bacterial species, ATP consistently enhanced the stability of the complexes"}]}, {"smiles": "Nc1ncnc2c1ncn2[C@@H]1O[C@H](COP(=O)(O)OP(=O)(O)OP(O)(O)=S)[C@@H](O)[C@H]1O", "note": "[ATPγS]", "values": [{"measurement": "cryo-EM structure, 3.7 Å", "setting": "[6]", "result": "8W6I (ATPγS bound FtsEX)"}]}]}
